What all share (assay): KINOMEscan (ScanMAX) kinase profiling
Holding throughout (type): binding

In test [1] the target is T1, panel of 468 kinases (Homo sapiens, UniProt P27037).
T1 construct: purchased KINOMEscan (ScanMAX) service
As to conditions: ACVR2A; 1 μM; read-out: % control.

The target of test [2] is T2, panel of 468 kinases (Homo sapiens, UniProt Q9UF33).
T2 construct: purchased KINOMEscan (ScanMAX) service
T2 sequence (Q9UF33 23-1036): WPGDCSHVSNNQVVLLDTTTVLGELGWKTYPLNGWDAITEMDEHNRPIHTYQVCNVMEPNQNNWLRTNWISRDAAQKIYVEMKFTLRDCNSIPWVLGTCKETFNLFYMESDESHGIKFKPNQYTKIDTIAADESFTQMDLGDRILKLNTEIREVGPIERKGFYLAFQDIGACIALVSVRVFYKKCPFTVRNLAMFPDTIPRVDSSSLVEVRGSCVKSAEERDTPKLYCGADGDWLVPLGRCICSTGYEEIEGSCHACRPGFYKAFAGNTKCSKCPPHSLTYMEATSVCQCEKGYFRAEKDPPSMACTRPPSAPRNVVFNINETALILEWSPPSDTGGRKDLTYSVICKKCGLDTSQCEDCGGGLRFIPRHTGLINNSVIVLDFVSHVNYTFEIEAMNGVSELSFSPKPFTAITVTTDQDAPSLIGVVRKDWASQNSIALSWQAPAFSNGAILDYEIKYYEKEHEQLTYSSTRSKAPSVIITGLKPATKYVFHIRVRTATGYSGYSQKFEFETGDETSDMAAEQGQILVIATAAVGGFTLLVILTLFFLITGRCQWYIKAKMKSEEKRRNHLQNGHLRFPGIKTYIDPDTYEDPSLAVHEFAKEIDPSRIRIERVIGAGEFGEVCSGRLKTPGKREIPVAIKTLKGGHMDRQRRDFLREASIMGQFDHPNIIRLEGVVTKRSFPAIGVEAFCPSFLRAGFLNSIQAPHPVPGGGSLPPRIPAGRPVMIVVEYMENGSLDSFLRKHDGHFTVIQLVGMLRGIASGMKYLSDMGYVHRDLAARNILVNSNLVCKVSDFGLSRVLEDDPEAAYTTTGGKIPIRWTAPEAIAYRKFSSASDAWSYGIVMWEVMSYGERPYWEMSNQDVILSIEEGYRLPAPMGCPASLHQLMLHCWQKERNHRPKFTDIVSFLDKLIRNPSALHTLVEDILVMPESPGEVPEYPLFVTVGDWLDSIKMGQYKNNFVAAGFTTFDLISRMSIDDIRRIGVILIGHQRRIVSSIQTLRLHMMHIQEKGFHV
Conditions: EPHA6; 1 μM; read-out: % control.

Test [3] deals with T3, panel of 468 kinases (Homo sapiens, UniProt Q16816).
T3 construct: purchased KINOMEscan (ScanMAX) service
As to conditions: PHKG1; 1 μM; read-out: % control.

The target in test [4] is T4, panel of 468 kinases (Homo sapiens, UniProt P11362).
T4 construct: purchased KINOMEscan (ScanMAX) service
As to conditions: FGFR1; 1 μM; read-out: % control.

For test [5], the target named is T5, panel of 468 kinases (Homo sapiens, UniProt P42680).
T5 construct: purchased KINOMEscan (ScanMAX) service
T5 sequence (P42680 1-631): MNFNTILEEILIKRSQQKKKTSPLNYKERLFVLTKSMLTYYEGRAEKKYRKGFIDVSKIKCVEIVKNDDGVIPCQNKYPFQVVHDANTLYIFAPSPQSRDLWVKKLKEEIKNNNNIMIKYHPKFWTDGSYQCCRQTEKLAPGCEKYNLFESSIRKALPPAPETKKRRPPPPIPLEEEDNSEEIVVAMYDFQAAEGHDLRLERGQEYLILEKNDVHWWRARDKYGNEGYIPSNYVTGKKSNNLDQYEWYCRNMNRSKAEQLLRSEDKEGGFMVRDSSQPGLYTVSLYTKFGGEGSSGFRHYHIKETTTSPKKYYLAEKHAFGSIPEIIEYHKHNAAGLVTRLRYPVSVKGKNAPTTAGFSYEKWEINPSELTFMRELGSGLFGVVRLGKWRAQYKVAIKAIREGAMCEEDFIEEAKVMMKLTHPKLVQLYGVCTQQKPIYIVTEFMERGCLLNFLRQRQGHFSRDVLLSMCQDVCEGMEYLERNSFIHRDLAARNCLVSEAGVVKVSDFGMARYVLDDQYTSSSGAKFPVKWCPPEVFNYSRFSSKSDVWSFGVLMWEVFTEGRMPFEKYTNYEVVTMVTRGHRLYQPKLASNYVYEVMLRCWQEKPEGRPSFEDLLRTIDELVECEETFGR
As to conditions: TEC; 1 μM; read-out: % control.

The target of test [6] is T6, panel of 468 kinases (Homo sapiens, UniProt P35626).
T6 construct: purchased KINOMEscan (ScanMAX) service
T6 sequence (P35626 1-688): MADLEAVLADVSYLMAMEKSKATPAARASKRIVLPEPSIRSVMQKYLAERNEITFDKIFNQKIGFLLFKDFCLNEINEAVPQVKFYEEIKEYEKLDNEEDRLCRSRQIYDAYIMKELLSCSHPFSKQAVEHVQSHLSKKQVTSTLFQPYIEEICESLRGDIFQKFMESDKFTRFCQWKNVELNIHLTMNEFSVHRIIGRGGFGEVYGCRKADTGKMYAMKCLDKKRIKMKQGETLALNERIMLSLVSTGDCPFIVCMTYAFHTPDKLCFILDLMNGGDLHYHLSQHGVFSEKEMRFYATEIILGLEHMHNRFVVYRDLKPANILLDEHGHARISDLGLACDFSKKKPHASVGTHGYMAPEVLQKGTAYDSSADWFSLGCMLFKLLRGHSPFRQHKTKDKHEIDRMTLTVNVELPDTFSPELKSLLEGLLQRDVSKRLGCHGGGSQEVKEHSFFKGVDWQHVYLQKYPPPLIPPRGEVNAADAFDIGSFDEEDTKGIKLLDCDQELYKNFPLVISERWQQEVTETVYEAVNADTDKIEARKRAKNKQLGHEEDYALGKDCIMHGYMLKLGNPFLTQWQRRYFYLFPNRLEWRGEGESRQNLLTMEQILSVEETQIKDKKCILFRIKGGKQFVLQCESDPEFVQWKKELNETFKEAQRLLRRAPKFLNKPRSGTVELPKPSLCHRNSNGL
As to conditions: GRK3; 1 μM; read-out: % control.

Test [7] addresses T7, panel of 468 kinases (Homo sapiens, UniProt Q9Y6R4).
T7 construct: purchased KINOMEscan (ScanMAX) service
As to conditions: MAP3K4; 1 μM; read-out: % control.

T3 sequence (Q16816 whole entry): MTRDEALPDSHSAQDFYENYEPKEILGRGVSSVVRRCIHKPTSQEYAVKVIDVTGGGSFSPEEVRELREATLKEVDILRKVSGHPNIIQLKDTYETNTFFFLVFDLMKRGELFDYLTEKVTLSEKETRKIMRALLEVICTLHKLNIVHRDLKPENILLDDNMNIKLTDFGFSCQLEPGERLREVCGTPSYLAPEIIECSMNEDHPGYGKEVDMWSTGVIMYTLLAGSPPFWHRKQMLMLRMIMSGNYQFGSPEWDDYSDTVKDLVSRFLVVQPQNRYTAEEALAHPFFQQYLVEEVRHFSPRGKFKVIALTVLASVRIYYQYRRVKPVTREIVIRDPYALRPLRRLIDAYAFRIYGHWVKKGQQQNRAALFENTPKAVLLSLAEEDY
T7 sequence (Q9Y6R4 whole entry): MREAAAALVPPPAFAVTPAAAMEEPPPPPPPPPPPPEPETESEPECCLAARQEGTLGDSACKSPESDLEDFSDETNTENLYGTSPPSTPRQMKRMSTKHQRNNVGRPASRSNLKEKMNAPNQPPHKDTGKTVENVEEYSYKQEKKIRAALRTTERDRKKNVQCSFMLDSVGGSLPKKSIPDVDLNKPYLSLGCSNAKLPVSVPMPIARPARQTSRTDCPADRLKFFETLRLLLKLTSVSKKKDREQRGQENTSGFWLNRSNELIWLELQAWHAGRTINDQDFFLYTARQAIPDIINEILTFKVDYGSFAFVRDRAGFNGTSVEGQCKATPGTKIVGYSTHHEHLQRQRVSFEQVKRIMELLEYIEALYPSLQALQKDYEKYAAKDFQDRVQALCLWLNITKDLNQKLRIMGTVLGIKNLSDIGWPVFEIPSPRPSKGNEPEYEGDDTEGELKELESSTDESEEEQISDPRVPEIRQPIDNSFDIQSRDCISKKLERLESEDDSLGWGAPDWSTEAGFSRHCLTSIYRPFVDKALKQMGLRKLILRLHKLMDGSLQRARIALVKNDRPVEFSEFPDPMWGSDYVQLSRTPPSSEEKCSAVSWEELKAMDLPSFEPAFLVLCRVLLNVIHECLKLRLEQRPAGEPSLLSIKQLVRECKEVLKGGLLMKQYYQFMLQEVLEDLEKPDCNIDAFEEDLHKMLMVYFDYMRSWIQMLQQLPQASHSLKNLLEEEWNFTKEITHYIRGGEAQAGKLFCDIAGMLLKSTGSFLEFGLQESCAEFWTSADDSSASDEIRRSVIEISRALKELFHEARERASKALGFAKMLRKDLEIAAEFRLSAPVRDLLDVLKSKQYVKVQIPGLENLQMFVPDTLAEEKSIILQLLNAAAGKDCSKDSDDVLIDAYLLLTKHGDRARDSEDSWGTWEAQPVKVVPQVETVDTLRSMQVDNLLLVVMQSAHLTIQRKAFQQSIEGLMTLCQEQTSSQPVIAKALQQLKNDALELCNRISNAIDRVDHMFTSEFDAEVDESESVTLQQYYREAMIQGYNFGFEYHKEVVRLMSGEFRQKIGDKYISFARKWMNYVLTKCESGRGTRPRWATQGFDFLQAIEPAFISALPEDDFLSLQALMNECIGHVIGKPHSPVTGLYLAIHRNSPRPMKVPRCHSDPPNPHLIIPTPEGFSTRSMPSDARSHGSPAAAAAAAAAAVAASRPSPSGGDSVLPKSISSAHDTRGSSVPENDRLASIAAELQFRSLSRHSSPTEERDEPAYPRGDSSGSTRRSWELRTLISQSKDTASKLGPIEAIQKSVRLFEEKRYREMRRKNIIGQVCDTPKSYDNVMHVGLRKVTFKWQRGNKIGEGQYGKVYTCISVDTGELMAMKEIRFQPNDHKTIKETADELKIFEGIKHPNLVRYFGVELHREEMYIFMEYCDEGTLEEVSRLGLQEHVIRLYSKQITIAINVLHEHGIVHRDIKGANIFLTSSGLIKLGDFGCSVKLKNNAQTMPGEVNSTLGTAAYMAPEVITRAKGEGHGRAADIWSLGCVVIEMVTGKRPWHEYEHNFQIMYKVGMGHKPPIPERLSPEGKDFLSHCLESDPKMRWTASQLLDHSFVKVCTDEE
T1 sequence (P27037 20-513): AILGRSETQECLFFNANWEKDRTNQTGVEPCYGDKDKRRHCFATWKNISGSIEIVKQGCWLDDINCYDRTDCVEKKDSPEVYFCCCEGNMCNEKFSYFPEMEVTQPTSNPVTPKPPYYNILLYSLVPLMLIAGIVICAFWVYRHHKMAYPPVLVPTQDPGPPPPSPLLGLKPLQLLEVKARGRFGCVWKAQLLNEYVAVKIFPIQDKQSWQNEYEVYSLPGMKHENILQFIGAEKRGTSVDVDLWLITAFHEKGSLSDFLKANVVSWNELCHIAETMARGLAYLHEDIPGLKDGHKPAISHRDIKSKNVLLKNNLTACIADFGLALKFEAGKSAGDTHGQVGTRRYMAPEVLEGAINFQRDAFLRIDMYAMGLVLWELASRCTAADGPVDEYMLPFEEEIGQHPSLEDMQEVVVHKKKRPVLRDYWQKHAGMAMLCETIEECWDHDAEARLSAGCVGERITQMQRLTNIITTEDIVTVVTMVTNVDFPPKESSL
T4 sequence (P11362 22-822): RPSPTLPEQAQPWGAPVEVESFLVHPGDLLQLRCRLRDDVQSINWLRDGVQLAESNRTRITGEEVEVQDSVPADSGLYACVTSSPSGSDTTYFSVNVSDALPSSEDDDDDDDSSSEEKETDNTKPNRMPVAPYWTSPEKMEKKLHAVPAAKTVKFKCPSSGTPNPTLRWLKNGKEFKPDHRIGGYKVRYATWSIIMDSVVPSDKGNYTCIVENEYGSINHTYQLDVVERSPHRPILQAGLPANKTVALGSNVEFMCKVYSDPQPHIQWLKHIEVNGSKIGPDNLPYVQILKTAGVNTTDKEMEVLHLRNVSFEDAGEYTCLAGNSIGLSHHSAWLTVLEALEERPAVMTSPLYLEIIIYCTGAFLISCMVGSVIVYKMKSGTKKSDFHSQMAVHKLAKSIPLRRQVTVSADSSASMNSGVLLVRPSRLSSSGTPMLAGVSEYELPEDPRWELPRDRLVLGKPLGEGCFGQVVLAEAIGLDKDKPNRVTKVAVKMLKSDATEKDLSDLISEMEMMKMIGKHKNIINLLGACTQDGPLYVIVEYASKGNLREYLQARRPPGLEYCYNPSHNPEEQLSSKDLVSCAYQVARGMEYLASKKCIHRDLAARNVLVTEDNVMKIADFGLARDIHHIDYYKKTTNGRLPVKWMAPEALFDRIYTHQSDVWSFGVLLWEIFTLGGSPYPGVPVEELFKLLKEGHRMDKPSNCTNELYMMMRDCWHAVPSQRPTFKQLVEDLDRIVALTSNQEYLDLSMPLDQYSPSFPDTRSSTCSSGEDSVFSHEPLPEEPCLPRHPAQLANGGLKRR

As to `CNc1nc(Nc2ccc(C(=O)N3CCC(N4CCOCC4)CC3)c3c2OCO3)nc2[nH]cc(Cl)c12` [Compound 75, (7-((5-chloro-4-(methylamino)-7H-pyrrolo[2,3-d]pyrimidin-2-yl)amino)benzo[d][1,3]dioxol-4-yl)(4-morpholinopiperidin-1-yl)methanone], the remaining binding at 1 µM at panel of 468 kinases [1] worked out at 100%; on panel of 468 kinases [2] it was 100%; on panel of 468 kinases [3] it was 14%; on panel of 468 kinases [4], 94%; on panel of 468 kinases [5], 100%; at panel of 468 kinases [6], 78%. The remaining binding at 1 µM at panel of 468 kinases [7] worked out at 100%.

As for `CNc1nc(Nc2ccc(P3(=O)CCN(C4CCOCC4)CC3)cc2OC)nc2[nH]cc(Cl)c12` [Compound 77, 4-(4-((5-chloro-4-(methylamino)-7H-pyrrolo[2,3-d]pyrimidin-2-yl)amino)-3-methoxyphenyl)-1-(tetrahydro-2H-pyran-4-yl)-1,4-azaphosphinane 4-oxide], the remaining binding at 1 µM was determined as 100% on panel of 468 kinases [1]; 100% on panel of 468 kinases [2]; 8.4% on panel of 468 kinases [3]; 100% on panel of 468 kinases [4]; 97% at panel of 468 kinases [5]; 82% on panel of 468 kinases [6]. Further, at panel of 468 kinases [7], the remaining binding at 1 µM turned out to be 100%.

As to `CNc1nc(Nc2ccc(S(=O)(=O)N3CCC(N4CCOCC4)CC3)cc2OC)nc2[nH]cc(Cl)c12` [Compound 12, 5-chloro-N2-(2-methoxy-4-((4-morpholinopiperidin-1-yl)sulfonyl)phenyl)-N4-methyl-7H-pyrrolo[2,3-d]pyrimidine-2,4-diamine], the remaining binding at 1 µM on panel of 468 kinases [1] is 100%; on panel of 468 kinases [2] it was 100%; on panel of 468 kinases [3], 25%; at panel of 468 kinases [4], 89%; at panel of 468 kinases [5], 93%; on panel of 468 kinases [6] it was 100%. At panel of 468 kinases [7], the remaining binding at 1 µM was determined as 100%.

The values above are taken from patent publication US12479847B2 (DANA-FARBER CANCER INSTITUTE, INC., priority 2019, dated 2025).
